Test [1] concerns the target T1, beta-catenin/TCF4 engagement (Homo sapiens, UniProt P35222).
T1 construct: expressed in transfected cells; host or cells: HEK293
T1 sequence (P35222 1-781): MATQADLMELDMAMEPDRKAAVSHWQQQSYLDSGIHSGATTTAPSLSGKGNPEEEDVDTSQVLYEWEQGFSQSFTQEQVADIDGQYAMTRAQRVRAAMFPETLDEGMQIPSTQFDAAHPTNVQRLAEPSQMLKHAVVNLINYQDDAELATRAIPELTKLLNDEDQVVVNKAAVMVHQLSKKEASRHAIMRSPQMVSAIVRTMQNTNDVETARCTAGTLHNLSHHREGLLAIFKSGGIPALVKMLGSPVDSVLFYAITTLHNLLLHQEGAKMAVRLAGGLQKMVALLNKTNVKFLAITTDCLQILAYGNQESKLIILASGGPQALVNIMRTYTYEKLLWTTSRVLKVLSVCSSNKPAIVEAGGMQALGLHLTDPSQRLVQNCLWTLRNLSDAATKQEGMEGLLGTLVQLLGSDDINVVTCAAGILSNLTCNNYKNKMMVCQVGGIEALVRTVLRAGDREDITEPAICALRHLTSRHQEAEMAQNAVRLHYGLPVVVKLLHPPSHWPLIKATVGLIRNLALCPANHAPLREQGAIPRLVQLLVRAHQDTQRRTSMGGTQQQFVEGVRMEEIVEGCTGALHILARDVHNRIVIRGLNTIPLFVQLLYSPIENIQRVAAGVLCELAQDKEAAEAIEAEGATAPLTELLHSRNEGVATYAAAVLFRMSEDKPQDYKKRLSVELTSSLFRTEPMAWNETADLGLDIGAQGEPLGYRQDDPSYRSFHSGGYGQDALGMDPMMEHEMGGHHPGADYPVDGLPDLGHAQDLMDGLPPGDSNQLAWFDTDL
Nature of the test: Nano-BRET target engagement assay (B-cat-Halo & TCF4-Luc in HEK293 cells). The following applies: absolute IC50; read-out: NanoBRET Abs IC50. The test is classed as cell-based. (In general: Bioluminescence resonance energy transfer reports proximity on the nanometre scale.)

Test [2] deals with T2, full-length beta-Catenin (Uniprot ID P35222) (Homo sapiens, UniProt P35222).
T2 construct: 10 nM full-length beta-Catenin (Uniprot ID P35222)
T2 sequence (P35222 1-781): T1 sequence (P35222 1-781)
The test can be described thus: Fluorescence polarization IC50 (beta-catenin / 5FAM-TCF4 10-53 competition). The test is classed as binding. Conditions: fluorescence polarization; read-out: beta-Catenin FP IC50.

Some results are limits rather than exact numbers.

Broadly, the IC50 is the point on the concentration scale where inhibition reaches its midpoint. In the case of `CC(=O)N1CCC[C@]12CC=CCCCC1(CCCC=CCCCOC(=O)N3CC[C@@](C(=O)N[C@@H](Cc4ccsc4)C(=O)N[C@@H](Cc4csc5ccccc45)C(=O)N[C@@H](CCC(N)=O)C(N)=O)(C3)NC(=O)[C@H](CC(N)=O)NC(=O)[C@H](Cc3ccccc3)NC(=O)[C@H](C)NC(=O)[C@H](C)NC(=O)[C@H](CC(N)=O)NC(=O)[C@H](CC(N)=O)NC1=O)NC(=O)[C@H](C)NC(=O)[C@H](CC(=O)O)NC2=O` (stereo partly drawn) [I-1556, Ac-PL3-Asp-Ala-B5-Asn-Asn-Ala-Ala-Phe-Asn-PyrS2-3Thi-BztA-Gln-NH2], the IC50 in test [1] was over 20000 nM; in test [2], 385 nM.
The matching figures for `CC(=O)N1CCC[C@]12CC=CCCCC1(CCCC=CCCCOC(=O)N3CC[C@@](C(=O)N[C@@H](Cc4ccsc4)C(=O)N[C@@H](Cc4csc5ccccc45)C(=O)N[C@@H](CCC(N)=O)C(N)=O)(C3)NC(=O)[C@H](CC(C)C)NC(=O)[C@H](Cc3ccccc3)NC(=O)[C@H](C)NC(=O)[C@H](C)NC(=O)[C@H](CC(N)=O)NC(=O)[C@H](CC(N)=O)NC1=O)NC(=O)[C@H](CC(C)(C)C)NC(=O)[C@H](CC(=O)O)NC2=O` (stereo partly drawn) [I-1557, Ac-PL3-Asp-Npg-B5-Asn-Asn-Ala-Ala-Phe-Leu-PyrS2-3Thi-BztA-Gln-NH2]: over 20000 nM and 342 nM.
The matching figures for `CC(=O)N1CCC[C@]12CC=CCCCC1(CCCC=CCCCOC(=O)N3CC[C@@](C(=O)N[C@@H](Cc4ccsc4)C(=O)N[C@@H](Cc4csc5ccccc45)C(=O)N[C@@H](CCC(N)=O)C(N)=O)(C3)NC(=O)[C@H](CC(N)=O)NC(=O)[C@H](Cc3ccccc3)NC(=O)[C@H](C)NC(=O)[C@H](C)NC(=O)[C@H]([C@@H](C)O)NC(=O)[C@H](CC(N)=O)NC1=O)NC(=O)[C@H](CC(C)(C)C)NC(=O)[C@H](CC(=O)O)NC2=O` (stereo partly drawn) [I-1564, Ac-PL3-Asp-Npg-B5-Asn-Thr-Ala-Ala-Phe-Asn-PyrS2-3Thi-BztA-Gln-NH2]: over 20000 nM and 122 nM.
The matching figures for `CC(=O)N1CCC[C@]12CC=CCCCC1(CCCC=CCCCOC(=O)N3CC[C@@](C(=O)N[C@@H](Cc4ccsc4)C(=O)N[C@@H](Cc4csc5ccccc45)C(=O)N[C@@H](CCC(N)=O)C(N)=O)(C3)NC(=O)[C@H](CC(N)=O)NC(=O)[C@H](Cc3ccccc3)NC(=O)[C@H](C)NC(=O)[C@H](C)NC(=O)[C@H]([C@@H](C)O)NC(=O)[C@H](CC(N)=O)NC1=O)NC(=O)[C@H](CC(C)(C)C)NC(=O)[C@H](CC(=O)O)NC2=O` (stereo partly drawn) [I-1565, Ac-PL3-Asp-Npg-B5-Asn-Thr-Ala-Ala-Phe-Asn-PyrS2-3Thi-BztA-Gln-NH2]: over 20000 nM and 148 nM.
As for `CC(=O)N1CCC[C@]12CC=CCCCC1(CCCC=CCCCOC(=O)N3CC[C@@](C(=O)N[C@@H](Cc4ccsc4)C(=O)N[C@@H](Cc4csc5ccccc45)C(=O)N[C@@H](CCC(N)=O)C(N)=O)(C3)NC(=O)[C@H](CC(N)=O)NC(=O)[C@H](Cc3ccccc3)NC(=O)[C@H](C)NC(=O)[C@H](C)NC(=O)[C@H](CCC(N)=O)NC(=O)[C@H](CC(N)=O)NC1=O)NC(=O)[C@H](CC(C)(C)C)NC(=O)[C@H](CC(=O)O)NC2=O` (stereo partly drawn) [I-1566, Ac-PL3-Asp-Npg-B5-Asn-Gln-Ala-Ala-Phe-Asn-PyrS2-3Thi-BztA-Gln-NH2], the IC50 was over 20000 nM in test [1] and 231 nM in test [2].
For `CC(=O)N1CCC[C@]12CC=CCCCC1(CCCC=CCCCOC(=O)N3CC[C@@](C(=O)N[C@@H](Cc4ccsc4)C(=O)N[C@@H](Cc4csc5ccccc45)C(=O)N[C@@H](CCC(N)=O)C(N)=O)(C3)NC(=O)[C@H](CC(N)=O)NC(=O)[C@H](Cc3ccccc3)NC(=O)[C@H](C)NC(=O)[C@H](C)NC(=O)[C@H](CCC(N)=O)NC(=O)[C@H](CC(N)=O)NC1=O)NC(=O)[C@H](CC(C)(C)C)NC(=O)[C@H](CC(=O)O)NC2=O` (stereo partly drawn) [I-1567, Ac-PL3-Asp-Npg-B5-Asn-Gln-Ala-Ala-Phe-Asn-PyrS2-3Thi-BztA-Gln-NH2] the same measures were over 20000 nM and 182 nM.
For `CC(=O)N1CCC[C@]12CC=CCCCC1(CCCC=CCCCOC(=O)N3CC[C@@](C(=O)N[C@@H](Cc4ccccc4Cl)C(=O)N[C@@H](Cc4csc5ccccc45)C(=O)N[C@@H](CCC(N)=O)C(N)=O)(C3)NC(=O)[C@H](CC(N)=O)NC(=O)[C@H](Cc3ccccc3)NC(=O)[C@H](C)NC(=O)[C@H](C)NC(=O)[C@H](CNCC(=O)O)NC(=O)[C@H](CC(=O)O)NC1=O)NC(=O)[C@H](CC(C)(C)C)NC(=O)[C@H](CC(=O)O)NC2=O` (stereo partly drawn) [I-1572, Ac-PL3-Asp-Npg-B5-Asp-GA-Ala-Ala-Phe-Asn-PyrS2-2C1F-BztA-Gln-NH2] the same measures were over 20000 nM and 20 nM.
The matching figures for `C[C@@H]1NC(=O)[C@H](C)NC(=O)[C@H](CC(=O)O)NC(=O)[C@H](CC(=O)O)NC(=O)C2(CCCC=CCCCOC(=O)N3CC[C@@](C(=O)N[C@@H](Cc4ccsc4)C(=O)N[C@@H](Cc4csc5ccccc45)C(=O)N[C@@H](CCC(N)=O)C(N)=O)(C3)NC(=O)[C@H](CC(N)=O)NC(=O)[C@H](Cc3ccccc3)NC1=O)CCCC=CCCC(=O)OC1CC(C(=O)N[C@@H](CC(=O)O)C(=O)N[C@@H](CC(C)(C)C)C(=O)N2)N(S(C)(=O)=O)C1` (stereo partly drawn) [I-1574, MeSO2-HypEs5-Asp-Npg-B5-Asp-Asp-Ala-Ala-Phe-Asn-PyrS2-3Thi-BztA-Gln-NH2]: over 20000 nM and 15 nM.
Turning to `CC(=O)N1CCC[C@]12CC=CCCCC1(CCCC=CCCCOC(=O)N3CC[C@@](C(=O)N[C@@H](Cc4ccsc4)C(=O)N[C@@H](Cc4csc5ccccc45)C(=O)N[C@@H](CCC(N)=O)C(N)=O)(C3)NC(=O)[C@H](CC(N)=O)NC(=O)[C@H](Cc3ccccc3)NC(=O)[C@H](C)NC(=O)[C@H](C)NC(=O)[C@H](Cc3cccc(-c4nnn[nH]4)c3)NC(=O)[C@H](CC(=O)O)NC1=O)NC(=O)[C@H](CC(C)(C)C)NC(=O)[C@H](CC(=O)O)NC2=O` (stereo partly drawn) [I-1578, Ac-PL3-Asp-Npg-B5-Asp-3TzF-Ala-Ala-Phe-Asn-PyrS2-3Thi-BztA-Gln-NH2], the half-inhibitory concentration (IC50) in test [1] is over 20000 nM; in test [2], 11 nM.
The matching figures for `CC(=O)N1CCC[C@]12CC=CCCCC1(CCCC=CCCCOC(=O)N3CC[C@@](C(=O)N[C@@H](Cc4ccsc4)C(=O)N[C@@H](Cc4csc5ccccc45)C(=O)N[C@@H](CCC(N)=O)C(N)=O)(C3)NC(=O)[C@H](CC(N)=O)NC(=O)[C@H](Cc3ccccc3)NC(=O)[C@H](C)NC(=O)[C@H](C)NC(=O)[C@H](Cc3ccc(-c4nnn[nH]4)cc3)NC(=O)[C@H](CC(=O)O)NC1=O)NC(=O)[C@H](CC(C)(C)C)NC(=O)[C@H](CC(=O)O)NC2=O` (stereo partly drawn) [I-1579, Ac-PL3-Asp-Npg-B5-Asp-4TzF-Ala-Ala-Phe-Asn-PyrS2-3Thi-BztA-Gln-NH2]: over 20000 nM and 39 nM.
For `CC(=O)N1CCC[C@]12CC=CCCCC1(CCCC=CCCCOC(=O)N3CC[C@@](C(=O)N[C@@H](Cc4ccccc4)C(=O)N[C@@H](Cc4csc5ccccc45)C(=O)N[C@@H](CCC(N)=O)C(N)=O)(C3)NC(=O)[C@H](CC(N)=O)NC(=O)[C@H](Cc3ccccc3)NC(=O)[C@H](C)NC(=O)[C@H](CCCCNC(C)C)NC(=O)[C@H]([C@@H](C)O)NC(=O)[C@H](CC(=O)O)NC1=O)NC(=O)[C@H](CC(C)(C)C)NC(=O)[C@H](CC(N)=O)NC2=O` (stereo partly drawn) [I-1602, Ac-PL3-Asn-Npg-B5-Asp-Thr-iPrLys-Ala-Phe-Asn-PyrS2-Phe-BztA-Gln-NH2] the same measures were over 20000 nM and 362 nM.
The matching figures for `CC(=O)N1CCC[C@]12CC=CCCCC1(CCCC=CCCCOC(=O)N3CC[C@@](C(=O)N[C@@H](Cc4ccccc4Cl)C(=O)N[C@@H](Cc4csc5ccccc45)C(=O)N[C@@H](CCCN4CCC(F)(F)CC4)C(N)=O)(C3)NC(=O)[C@H]([C@@H](C)O)NC(=O)[C@H](Cc3ccccc3)NC(=O)[C@H](C)NC(=O)[C@H](C)NC(=O)[C@H](CN(CC(=O)O)CC(F)(F)F)NC(=O)[C@H](CC(=O)O)NC1=O)NC(=O)[C@H](CC(C)(C)C)NC(=O)[C@H](CC(=O)O)NC2=O` (stereo partly drawn) [I-1607, Ac-PL3-Asp-Npg-B5-Asp-TfeGA-Ala-Ala-Phe-Thr-PyrS2-2C1F-BztA-F2PipNva-NH2]: 11900 nM and 49 nM.
For the compound `CC(=O)N1CCC[C@]12CC=CCCCC1(CCCC=CCCCOC(=O)N3CC[C@@](C(=O)N[C@@H](Cc4ccccc4C(F)(F)F)C(=O)N[C@@H](Cc4csc5ccccc45)C(=O)N[C@@H](CCCN4CCC(F)(F)CC4)C(N)=O)(C3)NC(=O)[C@H](CC(C)C)NC(=O)[C@H](Cc3ccccc3)NC(=O)[C@H](C)NC(=O)[C@H](C)NC(=O)[C@H](Cc3cccc(C(=O)O)c3)NC(=O)[C@H](CC(=O)O)NC1=O)NC(=O)[C@H](CC(C)(C)C)NC(=O)[C@H](CC(=O)O)NC2=O` (stereo partly drawn) [I-1608, Ac-PL3-Asp-Npg-B5-Asp-3COOHF-Ala-Ala-Phe-Leu-PyrS2-2F3MeF-BztA-F2PipNva-NH2], the IC50 in test [1] turned out to be 15100 nM; in test [2], 76 nM.

The values are drawn from patent US20240116985A1, “STAPLED PEPTIDES AND METHODS THEREOF” (priority 2020, published 2024).
